The results in this text go back to patent publication US10947213B1 (Merck Patent GmbH, priority 2015, dated 2021).

The structures appear in SMILES notation. Structures can show the parent of a compound that is named as a salt.

The target of this assay is T1, TLR7/NFKb HEK cells (Homo sapiens, UniProt Q9NYK1).
T1 construct: expressed in transfected cells; host or cells: HEK cells (TLR7/NFKb reporter line)
T1 sequence (Q9NYK1 27-1049): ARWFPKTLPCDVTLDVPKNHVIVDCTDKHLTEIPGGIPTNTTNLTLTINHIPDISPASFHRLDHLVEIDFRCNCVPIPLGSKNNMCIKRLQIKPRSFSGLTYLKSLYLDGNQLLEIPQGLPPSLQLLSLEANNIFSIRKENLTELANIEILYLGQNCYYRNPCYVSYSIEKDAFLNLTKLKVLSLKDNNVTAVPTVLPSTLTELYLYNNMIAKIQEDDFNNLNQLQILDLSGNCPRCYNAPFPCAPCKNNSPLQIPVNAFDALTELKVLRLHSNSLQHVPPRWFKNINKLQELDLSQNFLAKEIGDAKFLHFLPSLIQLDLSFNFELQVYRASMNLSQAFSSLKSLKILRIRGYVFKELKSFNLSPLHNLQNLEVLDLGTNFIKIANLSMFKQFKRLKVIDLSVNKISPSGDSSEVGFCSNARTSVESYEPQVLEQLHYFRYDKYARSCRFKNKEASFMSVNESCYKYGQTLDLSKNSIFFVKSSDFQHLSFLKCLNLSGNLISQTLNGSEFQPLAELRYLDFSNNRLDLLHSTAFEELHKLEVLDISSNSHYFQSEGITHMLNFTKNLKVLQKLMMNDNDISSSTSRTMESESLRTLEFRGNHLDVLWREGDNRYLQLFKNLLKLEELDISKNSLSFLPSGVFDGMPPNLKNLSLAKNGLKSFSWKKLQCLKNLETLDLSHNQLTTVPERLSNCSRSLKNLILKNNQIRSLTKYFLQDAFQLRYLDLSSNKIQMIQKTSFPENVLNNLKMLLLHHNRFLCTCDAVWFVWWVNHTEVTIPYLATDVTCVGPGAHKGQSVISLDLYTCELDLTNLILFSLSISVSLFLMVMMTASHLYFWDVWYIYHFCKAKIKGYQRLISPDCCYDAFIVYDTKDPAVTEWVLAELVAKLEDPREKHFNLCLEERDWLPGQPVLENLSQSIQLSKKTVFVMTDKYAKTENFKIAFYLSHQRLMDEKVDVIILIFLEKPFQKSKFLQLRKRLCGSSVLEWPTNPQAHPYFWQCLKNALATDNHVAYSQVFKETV
Kind of assay: HEK Cell Assay (TLR7/NFKb reporter, Steady-Glo luciferase readout). It counts as cell-based. The conditions noted are these: 30 min compound preincubation, then R*48 agonist for 5 hours, read-out: Potency. A digest of the protocol:
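Steady-Glo luminescence after 5 h stimulation with R*48 agonist, following 30 min compound preincubation. Assay run in HEK cells carrying a TLR7/NFKb luciferase reporter, plated at 5000 cells/well and grown 24 h at 37° C (10% CO2) before treatment.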
For the compound `N#Cc1ccc(N2C[C@H](NCCC(F)(F)F)C[C@H](C(F)(F)F)C2)c2nccnc12` (relative stereo) [Compound 95, cis-8-[3-(trifluoromethyl)-5-[(3,3,3-trifluoropropyl)amino]piperidin-1-yl]quinoxaline-5-carbonitrile], the IC50 lay in the range of 1000 to 10000 nM.

In the case of `N#Cc1ccc(N2CC(N)CC(F)(F)C2)c2nccnc12` (single isomer, unassigned) [Compound 75], the IC50 was less than 1000 nM.

In the case of `Cc1cc2c(N3C[C@@H](C)C[C@@H](NC(=O)CO)C3)ccnc2n1C` [Compound 13, N-((3R,5S)-1-(1,2-dimethyl-1H-pyrrolo[2,3-b]pyridin-4-yl)-5-methylpiperidin-3-yl)-2-hydroxyacetamide], the IC50 is greater than 10000 nM.

With `C[C@H]1C[C@@H](NC(=O)CC2CC2(F)F)CN(c2ccc(C(F)F)c3nccnc23)C1` (stereo partly drawn) [Compound 322, 2-(2,2-difluorocyclopropyl)-N-[(3R,5S)-1-[8-(difluoromethyl)quinoxalin-5-yl]-5-methylpiperidin-3-yl]acetamide], the IC50 lay in the range of 1000 to 10000 nM.

Consider `Cc1ncc(N2C[C@@H](C)C[C@@H](NC(=O)[C@H](N)C3CC3)C2)c2cccnc12` [Compound 561, (R)-2-Amino-2-cyclopropyl-N-[(3R,5S)-5-methyl-1-(8-methyl-[1,7]naphthyridin-5-yl)-piperidin-3-yl]-acetamide], for which the IC50 is less than 1000 nM.

For `CC1(C)C[C@@H](NC(=O)C(N)C(F)(F)F)CN(c2ccc(C#N)c3nccnc23)C1` (single isomer, unassigned) [Compound 212], the IC50 was 1000 to 10000 nM.

Take `C[C@H]1C[C@@H](NC(=O)CC2CCN(C)CC2)CN(c2ccc(F)c3ncccc23)C1` [Compound 471, N-[(3R,5S)-1-(8-Fluoro-quinolin-5-yl)-5-methyl-piperidin-3-yl]-2-(1-methyl-piperidin-4-yl)-acetamide]: the IC50 is less than 1000 nM.

For the compound `COc1ccc(N2C[C@@H](N)C[C@@H](C3CC3)C2)c2cccnc12` (relative stereo) [Compound 334, cis-5-cyclopropyl-1-(8-methoxyquinolin-5-yl)piperidin-3-amine], the IC50 is less than 1000 nM.

Regarding `O=C(CN1CCOCC1)NC1CN(c2ccc(C(F)(F)F)c3ncccc23)CC(F)(F)C1` (centres unmarked) [Compound 512, N-[5,5-Difluoro-1-(8-trifluoromethyl-quinolin-5-yl)-piperidin-3-yl]-2-morpholin-4-yl-acetamide], the IC50 was 1000 to 10000 nM.

Take `CCN(CC)CCNCC1CCN(c2ccnc3cc(C)ccc23)CC1` [Compound 389, N,N-Diethyl-N′-[1-(7-methyl-quinolin-4-yl)-piperidin-4-ylmethyl]-ethane-1,2-diamine]: the IC50 was in the range of 1000 to 10000 nM.

Regarding `C[C@H]1C[C@@H](NC2CCOC2)CN(c2ccc(C#N)c3nccnc23)C1` (stereo partly drawn) [Compound 138, 8-[(3S,5R)-3-methyl-5-[(oxolan-3-yl)amino]piperidin-1-yl]quinoxaline-5-carbonitrile], the IC50 is less than 1000 nM.

Turning to `CN1CCN(CC(=O)NC2CN(c3ccc(C#N)c4nccnc34)CC(F)(F)C2)CC1` (centres unmarked) [Compound 503, N-[1-(8-Cyano-quinoxalin-5-yl)-5,5-difluoro-piperidin-3-yl]-2-(4-methyl-piperazin-1-yl)-acetamide], the IC50 is less than 1000 nM.

Regarding `C[C@H]1C[C@@H](NC(=O)CO)CN(c2ccnc3nccnc23)C1` [Compound 15, 2-hydroxy-N-((3R,5S)-5-methyl-1-(pyrido[2,3-b]pyrazin-8-yl)piperidin-3-yl)acetamide], the IC50 is greater than 10000 nM.

As for `C[C@H]1C[C@@H](NC2CCNC2=O)CN(c2ccc(C#N)c3nccnc23)C1` (stereo partly drawn) [Compound 123, 8-[(3S,5R)-3-methyl-5-[(2-oxopyrrolidin-3-yl)amino]piperidin-1-yl]quinoxaline-5-carbonitrile], the IC50 was less than 1000 nM.

With `C[C@H]1C[C@@H](NC(=O)C(N)C2CC2)CN(c2ccc(C(F)(F)F)c3ncccc23)C1` (stereo partly drawn) [Compound 282, 2-amino-2-cyclopropyl-N-[(3R,5S)-5-methyl-1-[8-(trifluoromethyl)quinolin-5-yl]piperidin-3-yl]acetamide], the IC50 was less than 1000 nM.

For the compound `C[C@H]1C[C@@H](NC(=O)C2(N)CC2)CN(c2ccc(C#N)c3nccnc23)C1` [Compound 31, 1-amino-N-((3R,5S)-1-(8-cyanoquinoxalin-5-yl)-5-methylpiperidin-3-yl)cyclopropanecarboxamide hydrochloride], the IC50 was in the range of 1000 to 10000 nM.

With `C[C@H]1C[C@@H](NC(=O)CNC(C)(C)C)CN(c2ccc(C#N)c3nccnc23)C1` [Compound 142, 2-(tert-butylamino)-N-[(3R,5S)-1-(8-cyanoquinoxalin-5-yl)-5-methylpiperidin-3-yl]acetamide], the IC50 was less than 1000 nM.

As for `N#Cc1ccc(N2C[C@@H](NC(=O)CN3CCOCC3)C[C@@H](C(F)(F)F)C2)c2nccnc12` (relative stereo) [Compound 228, cis-N-[1-(8-cyanoquinoxalin-5-yl)-5-(trifluoromethyl)piperidin-3-yl]-2-(morpholin-4-yl)acetamide], the IC50 lay in the range of 1000 to 10000 nM.

As to `Cc1ncc(N2C[C@@H](C)C[C@@H](NC(=O)CC3CCN(C)CC3)C2)c2cccnc12` [Compound 554, N-[(3R,5S)-5-Methyl-1-(8-methyl-[1,7]naphthyridin-5-yl)-piperidin-3-yl]-2-(1-methyl-piperidin-4-yl)-acetamide], the IC50 was less than 1000 nM.

With `CCN(CC)C1CCN(CC2CCN(c3ccnc4nccnc34)CC2)CC1` [Compound 4, N,N-diethyl-1-((1-(pyrido[2,3-b]pyrazin-8-yl)piperidin-4-yl)methyl)piperidin-4-amine], the IC50 lay within 1000 to 10000 nM.

Consider `Cn1ncc2c(N3CCC(C(=O)NCCN4CCCCC4)CC3)ncnc21` [Compound 3, 1-(1-methyl-1H-pyrazolo[3,4-d]pyrimidin-4-yl)-N-(2-(piperidin-1-yl)ethyl)piperidine-4-carboxamide], for which the IC50 lay in the range of 1000 to 10000 nM.

With `O=C(NCCN1CCCCC1)C1CCN(c2ccc(C(F)(F)F)c3ncccc23)CC1` [Compound 441, 1-(8-Trifluoromethyl-quinolin-5-yl)-piperidine-4-carboxylic Acid (2-piperidin-1-yl-ethyl)-amide], the IC50 was less than 1000 nM.

In the case of `C[C@H]1C[C@@H](NC(=O)CN2CCOCC2)CN(c2ccc(C(F)(F)F)c3ncccc23)C1` [Compound 239, N-[(3R,5S)-5-methyl-1-[8-(trifluoromethyl)quinolin-5-yl]piperidin-3-yl]-2-(morpholin-4-yl)acetamide], the IC50 was less than 1000 nM.

With `CC(C(=O)N[C@@H]1C[C@H](C)CN(c2ccc(C(F)(F)F)c3nccnc23)C1)N1CC(F)(F)C1` (stereo partly drawn) [Compound 299, 2-(3,3-difluoroazetidin-1-yl)-N-[(3R,5S)-5-methyl-1-[8-(trifluoromethyl)quinoxalin-5-yl]piperidin-3-yl]propanamide], the IC50 was in the range of 1000 to 10000 nM.

`COCCN[C@@H]1C[C@H](C)CN(c2ccc(OC)c3ncccc23)C1` [Compound 190, (3R,5S)—N-(2-methoxyethyl)-1-(8-methoxyquinolin-5-yl)-5-methylpiperidin-3-amine]: the IC50 is less than 1000 nM.

As for `Cc1ncc(N2C[C@@H](C)C[C@@H](NC(=O)CCC(N)=O)C2)c2cccnc12` [Compound 564, N-[(3R,5S)-5-Methyl-1-(8-methyl-[1,7]naphthyridin-5-yl)-piperidin-3-yl]-succinamide], the IC50 was greater than 10000 nM.
